In publication PMC12298827, “Subchronic Toxicities of Four Per- and Polyfluoroalkyl Substances (PFASs) by Oral Exposure in Sprague–Dawley Rats” (Toxics, 2025):

Key:
[1] = Solubility in dosing vehicles; type: physicochemical; conditions: corn oil, oil or lipid; read-out: Solubility in corn oil
Excerpt: Based on solubility, corn oil (Welsh, Holme & Clark Inc., Newark, NJ, USA) was used as the vehicle for all four PFASs. Gas chromatography (GC) with flame ionization detection (FID) was used for the analysis of the PFNAC, PFHI, and MHFPK formulations, and a high-performance liquid chromatography (HPLC) method with ultraviolet spectroscopy was used for the CTFPA formulation. The details of the dosing solution analytical conditions are summarized in supplemental Tables S1 and S2. These analytical methods were developed specifically for these subchronic toxicity studies. […] Dosing solutions were prepared and replaced between at least every 29 days and no more than every 39 days.
PFNAC, PFHI, and MHFPK were soluble in corn oil up to 67, 200, and 100 mg/mL, respectively. As solubility in aqueous vehicles was 40 mg/mL or less for all three chemicals, corn oil was chosen as the vehicle. PFNAC was stable at the ambient temperature for 51 days at target concentrations of 0.2 and 10 mg/mL PFHI was stable in corn oil at ambient temperatures and target concentrations of 1 and 80 mg/mL for up to 70 days. MFHPK was stable in corn oil at room temperature for up to 44 days at target concentrations of 5 and 100 mg/mL. CTFPA was soluble in both deionized (DI) water and corn oil at 200 mg/mL when stored refrigerated overnight. […] Thus, corn oil was chosen as the vehicle for CTFPA. The stability of the CTFPA in the corn oil was evaluated for 8, 13, 15, 23, 35, and 42 days stored refrigerated in plastic bottles. CTFPA at 40 mg/mL was stable for up to 42 days. CTFPA at 0.6 mg/mL was stable for up to […] when refrigerated in plastic bottles but by 42 days had decreased to approximately 81%.

[2] = tested on: male SD rats; test: Single-dose tolerability study, oral gavage; type: in vivo, rat; conditions: single oral dose in corn oil, n = 3/dose
Description: Tolerability, 14-day dose-range-finding, and 90-day subchronic toxicity studies were conducted at Inotiv (Gaithersburg, MD, USA), monitored by the Research Triangle Institute (RTI) (Durham, NC, USA) and sponsored and funded by the EPA. Tolerability studies used four PFAS dose levels plus a control, with the high doses not to exceed 1000 mg/kg (subject to solubility in corn oil, dose volume of 5 or 10 mL/kg) and lower doses separated by threefold spacing. The dose levels for PFHI, MHFPK, and CTFPA were […]. The dose levels for PFNAC were 0, 25, 75, 225, and 667 mg/kg. Tolerability was studied using male rats (n = 3 rats/group) that received a single dose by oral gavage. The rats were euthanized at 48 hours post dosing. The data collected were bodyweight (BW) and BW changes (BWCs), feed consumption (FC) and water consumption (WC), cage-side observations, and physical exams; no necropsies were performed.

[3] = tested on: male and female SD rats; test: 14-day dose-range-finding oral gavage study; type: in vivo, rat; conditions: both sexes, all doses
Description: Dose-range-finding (14-day) studies were conducted using male and female rats to establish dose levels for 90-day studies and identify potential target organ toxicities. Male and female rats (n = 5 sex/group, a control and three dose groups, corn oil vehicle dose volume of 5 mL/kg) were administered PFASs by oral gavage daily for 14 days and euthanized on study day (SD) 15. The dose levels for PFHI, CTFPA, and MHFPK were 0, 30, 100, and 300 mg/kg-day. The dose levels for PFNAC were 0, 10, 30, and 100 mg/kg-day. The in vivo data collected included BW, BWCs, FC, cage-side observations, and physical exams. Gross necropsies, relative and absolute organ weights, and clinical chemistry data were collected for all the groups. Macroscopic and microscopic pathology examinations were conducted for the control and high-dose groups initially; the other groups were examined if justified by experimental findings. Plasma samples were analyzed ~2 h post dosing on day 1 and at day 15 for the parent PFAS chemical.
Neurotoxicity was evaluated using the functional observational battery (FOB) and measuring locomotor activity (LMA) 2–4 h post dosing on SDs 78–80 and 80–84, respectively. For both the 14- and 90-day studies, an ophthalmologic examination was conducted prior to randomization and near the end of the study, using indirect ophthalmoscopy and slit–lamp biomicroscopy (as needed) after the administration of a mydriatic solution.
Hematology, biochemistry, and coagulation endpoints were measured at the termination of the study. A Siemens Advia 2120i hematology analyzer (Siemens Healthineers, Erlangen, Germany) was used to measure (or calculate) the parameters related to the complete blood count, leukocyte differential count, and reticulocyte count. The hematology parameters are listed and described in Table 2. The prothrombin time […] and activated partial thromboplastin time (APTT) were measured using an Instrumentation Laboratory (Bedford, MA, USA) ACL Elite Pro coagulation analyzer (laser–nephelometric centrifugal method).
At necropsy, the rats were visually examined for external abnormalities and organ weights (absolute and relative to the BW and brain weight), which were recorded (paired organs weighed together). The tissues were preserved in 10% neutral buffered formalin (NBF), except for the ocular tissues, testes, and epididymides, which were preserved in modified Davidson’s fixative and later transferred to 10% NBF. Bone marrow smears were prepared from the femurs, and the slides were air-dried, fixed in methanol, stained, and stored at room temperature for possible future evaluation. The preserved tissues were embedded in paraffin, sectioned, stained with hematoxylin and eosin, and examined by a board-certified veterinary pathologist.

CC(=O)C(F)(F)C(F)(F)C(F)(F)F [MHFPK, Methyl heptafluoropropyl ketone]
solubility [1]: ≤ 100 mg/mL
Summary of observations [2]: No mortality. Clinical signs of low activity and minimal ataxia on study day 1 at 1000 mg/kg, with recovery on the following two observation days
Bodyweight and bodyweight gain [3]: No changes
Clinical chemistry [3]: Minimal increases in BUN and creatinine at 300 mg/kg-day for males; increased creatinine in females at ≥100 mg/kg-day
Clinical observations [3]: None
Coagulation endpoints [3]: No effects
Feed consumption [3]: No effects
Gross lesions [3]: None
Hematology [3]: No effects considered as chemical related
Histopathology [3]: No test-substance-related changes
Morbidity and mortality [3]: None
Ophthalmology [3]: No ocular lesions
Organ weight changes [3]: No test-substance-related changes
